Consider 11 compounds from ChEMBL document CHEMBL1201862, “PubChem BioAssay data set” (2004).

Test systems include ACHN; EKVX; HOP-62; IGROV-1; K562; M19-MEL; NCI-H226; NCI-H23; OVCAR-3; OVCAR-4; SF-268; SK-OV-3; SR; U-251; UACC-257; UO-31; RPMI-8226; RXF 393; SK-MEL-2.
Experiment in all cases: NCI tumour cell line growth inhibition, 48 h

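Grown in 96-well plates, cells were treated for 48 hours with each compound at five concentrations. Insufficient inhibition: endpoint recorded as highest concentration tested. GI50 marks 50% less growth.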 Active and inactive are the calls of the source. Rule as the data show it: active = GI50 up to about 1.1 µM and inactive = higher.

As for `CC(C)N(C(=O)C12C3C4C5(C(=O)O)C(C1C35I)C42C(=O)O)C(C)C` (stereo unspecified), the GI50 with ACHN, with EKVX, in the test on HOP-62, in the test with IGROV-1, in the test on K562 and with M19-MEL was > 100 µM (inactive) in each case. Also, the GI50 in the test on NCI-H226, in the test on NCI-H23, in the test with OVCAR-3, with OVCAR-4, in the test on SF-268 and with SK-OV-3 was > 100 µM (inactive) each time. For the same compound, the GI50 in the test with SR, in the test with U-251, in the test with UACC-257 and in the test on UO-31 was > 100 µM (inactive) in each case.
Turning to `Cc1ccc(-n2c3nc(=O)n(C)c(=O)c-3nc3ccccc32)c(C)c1`, the GI50 in the test with ACHN was 3.58 µM (inactive); in the test with EKVX, 8.67 µM (inactive); with HOP-62, 24.3 µM (inactive); in the test on IGROV-1 it was 15.1 µM (inactive); in the test with K562, 16.4 µM (inactive); in the test with M19-MEL, 1.63 µM (inactive). Moreover, the GI50 in the test on NCI-H226 was 14.9 µM (inactive); in the test on NCI-H23, 1.9 µM (inactive); in the test on OVCAR-3, 2.5 µM (inactive); in the test with OVCAR-4, 12 µM (inactive); with RPMI-8226 it was 12.8 µM (inactive); in the test with RXF 393, 14.6 µM (inactive). Also, the GI50 was 15.4 µM (inactive) with SF-268; 12.9 µM (inactive) in the test with SK-MEL-2; 35.1 µM (inactive) in the test with SK-OV-3; 15.8 µM (inactive) with U-251; 3.6 µM (inactive) with UACC-257; 24.3 µM (inactive) in the test on UO-31.
Regarding `O=C(n1c2ccccc2c2nnc(S)nc21)C(F)(F)F`, the GI50 in the test on EKVX, with HOP-62, in the test with IGROV-1, in the test on K562, in the test on M19-MEL and with NCI-H226 was > 100 µM (inactive) throughout. Besides, the GI50 in the test on NCI-H23 was > 100 µM (inactive); with OVCAR-3, > 100 µM (inactive); in the test with OVCAR-4 it was > 100 µM (inactive); with RXF 393, 33.4 µM (inactive); in the test with SF-268 it was > 100 µM (inactive); in the test on SK-MEL-2, > 10 µM (inactive). In addition, the GI50 with SK-OV-3, in the test on U-251 and in the test with UO-31 was > 100 µM (inactive) each time.
As to `Clc1ccc(C(n2cc(Br)cn2)n2cc(Br)cn2)cc1`, the GI50 in the test on ACHN is 14.5 µM (inactive); in the test with EKVX, 19.7 µM (inactive); in the test with HOP-62, 17.8 µM (inactive); with IGROV-1 it was 18.7 µM (inactive); in the test with K562, 18 µM (inactive); with M19-MEL it was 16.9 µM (inactive). The GI50 in the test on NCI-H226 is 8.91 µM (inactive); in the test on NCI-H23, 17.9 µM (inactive); in the test with OVCAR-3 it was 14.1 µM (inactive); in the test with OVCAR-4 it was 12 µM (inactive); in the test on RPMI-8226, 19.9 µM (inactive); with RXF 393, 14.5 µM (inactive). For the same compound, the GI50 in the test with SF-268 is 16.4 µM (inactive); with SK-MEL-2, 16.8 µM (inactive); in the test on SK-OV-3, 35.1 µM (inactive); in the test on U-251, 16.3 µM (inactive); in the test with UACC-257, 14.7 µM (inactive); in the test on UO-31, 0.267 µM (active).
Turning to `CN(C)NC(=O)NC12CC3CC(CC(C3)C1)C2`, the GI50 with ACHN, in the test with EKVX, in the test on IGROV-1, in the test with K562, in the test with M19-MEL and in the test with NCI-H226 was > 100 µM (inactive) in each case. In addition, the GI50 was > 100 µM (inactive) with NCI-H23; > 100 µM (inactive) in the test on OVCAR-4; > 100 µM (inactive) in the test with RPMI-8226; > 10 µM (inactive) in the test on RXF 393; > 100 µM (inactive) with SF-268; > 100 µM (inactive) in the test with SK-MEL-2. The GI50 in the test on SK-OV-3, in the test with SR, in the test on U-251, with UACC-257 and in the test with UO-31 was > 100 µM (inactive) each time.
In the case of `Cc1cc2c(cn1)C(=O)OCC2`, the GI50 in the test on ACHN, in the test on EKVX, in the test on HOP-62, in the test on IGROV-1, in the test on K562 and with M19-MEL was > 100 µM (inactive) in each case. Besides, the GI50 in the test with NCI-H226, in the test on NCI-H23, in the test on OVCAR-3, with OVCAR-4, in the test with RPMI-8226 and with RXF 393 was > 100 µM (inactive) throughout. Besides, the GI50 with SF-268, with SK-OV-3, in the test with SR, with U-251, in the test on UACC-257 and with UO-31 was > 100 µM (inactive) in each case.
`COc1ccc2c(c1)[n+]([O-])c(/C(C)=N/NC(=O)CC#N)c[n+]2[O-]`: the GI50 in the test with ACHN, in the test on EKVX, with HOP-62, with IGROV-1, with K562 and in the test with M19-MEL was > 100 µM (inactive) each time. For the same compound, the GI50 with NCI-H226 is > 100 µM (inactive); in the test with NCI-H23, > 100 µM (inactive); in the test on OVCAR-3 it was > 100 µM (inactive); in the test with OVCAR-4, > 100 µM (inactive); with RPMI-8226, 54.7 µM (inactive); in the test with RXF 393 it was > 100 µM (inactive). Moreover, the GI50 with SF-268, with SK-MEL-2, with SK-OV-3, in the test on SR, with U-251 and in the test with UACC-257 was > 100 µM (inactive) in each case. The GI50 with UO-31 was > 100 µM (inactive).
Consider `Oc1ccc2ccccc2c1/N=N/c1ccsc1`, for which the GI50 with ACHN, in the test with HOP-62, with IGROV-1, in the test on K562, with M19-MEL and in the test with NCI-H226 was > 100 µM (inactive) each time. The GI50 in the test on NCI-H23 is > 100 µM (inactive); with OVCAR-3, > 100 µM (inactive); in the test on OVCAR-4, > 100 µM (inactive); in the test on RPMI-8226, > 100 µM (inactive); with RXF 393, 53.3 µM (inactive); with SF-268, > 100 µM (inactive). Further, the GI50 in the test with SK-MEL-2, in the test on SK-OV-3, in the test with SR, in the test with U-251, in the test with UACC-257 and with UO-31 was > 100 µM (inactive) throughout.
Consider `COC(=O)c1nn(C(=N)c2ccc(Cl)cc2)c2c1CCCCC2`, for which the GI50 in the test with ACHN, in the test with HOP-62, in the test with IGROV-1, in the test with K562, in the test with M19-MEL and in the test on NCI-H226 was > 100 µM (inactive) in each case. The GI50 in the test on NCI-H23, in the test on OVCAR-4, in the test with RPMI-8226, with RXF 393, in the test on SF-268 and with SK-MEL-2 was > 100 µM (inactive) throughout. The GI50 with SK-OV-3, in the test on SR, in the test with U-251, with UACC-257 and with UO-31 was > 100 µM (inactive) in each case.
Turning to `COC(=O)[C@H]1C=C[C@@H](C)n2c(=O)c3cc4ccccc4cc3c(=O)n21`, the GI50 in the test with ACHN, with EKVX, with HOP-62, in the test with IGROV-1, in the test with K562 and in the test on M19-MEL was > 100 µM (inactive) in each case. Further, the GI50 in the test on NCI-H226, with NCI-H23, in the test on OVCAR-3, in the test on RPMI-8226, in the test on RXF 393 and with SF-268 was > 100 µM (inactive) throughout. Also, the GI50 in the test with SK-MEL-2, with SK-OV-3, with SR, in the test with U-251, with UACC-257 and with UO-31 was > 100 µM (inactive) in each case.
As to `CCOP(=S)(OCC)Oc1ccc2c(c1)OC(=O)C1(Cl)C2(C)C2(Cl)C(=O)Oc3cc(OP(=S)(OCC)OCC)ccc3C12C` (stereo unspecified), the GI50 with ACHN is 22.4 µM (inactive); in the test on EKVX it was 24.3 µM (inactive); in the test with HOP-62, 18.3 µM (inactive); in the test on IGROV-1, 17.3 µM (inactive); in the test with K562, 27.3 µM (inactive); in the test with M19-MEL, 18 µM (inactive). In addition, the GI50 in the test with NCI-H226 is 15.1 µM (inactive); in the test with NCI-H23 it was > 10 µM (inactive); in the test on OVCAR-3 it was 14.6 µM (inactive); in the test on OVCAR-4, 10.7 µM (inactive); in the test on RPMI-8226, 11.1 µM (inactive); in the test with RXF 393 it was 11.8 µM (inactive). In addition, the GI50 is 6.08 µM (inactive) in the test with SF-268; 20.4 µM (inactive) in the test on SK-MEL-2; 6.35 µM (inactive) with U-251; 17.7 µM (inactive) with UACC-257; 17.9 µM (inactive) in the test on UO-31.
